# Data from patent US11639332B2, “Methods and compositions of isoindoline-1,3-dione and isoindole prodrugs useful for treating cancer, ulcerative colitis and related inflammatory diseases” (AMGEN (EUROPE) GMBH, priority 2018, dated 2023).
# Values joined by “and” are separate entries in the source; they are usually repeats but may differ in a detail not shown here. Identical values can stand only once.
# Test system: Trinitrobenzenesulfonic Acid (TNBS) Rat Model of Colonic Inflammation
# Test: Trinitrobenzenesulfonic acid (TNBS) rat model of colonic inflammation, oral treatment Days 1-6, evaluation Day 7
# Format: in vivo, Sprague-Dawley rats
# Parameters: key to Average Colonic Score: sum of adhesions, strictures, ulcers and wall thickness scores
# Conditions: for Average # Ulcers / Average Colon Length / Average Colon Weight / Average Colonic Score / Average Ratio (colon length/colon weight) / Average Ulcer Length / Average Wall Thickness / Average Adhesions / Average Colon Wall Thickness, score / Average Strictures / Average Ulcers, score / Average Rat Weight: group mean; for Average # Ulcers / Average Colon Length / Average Colon Weight / Average Colonic Score / Average Ratio (colon length/colon weight) / Average Ulcer Length / Average Wall Thickness / Average Adhesions / Average Colon Wall Thickness, score / Average Strictures / Average Ulcers, score / # Ulcers / Colon Length / Colon Weight / Ratio (colon length/colon weight) / Ulcer Length / Wall Thickness / Colon Wall Thickness, score / Ulcers, score / Strictures / Adhesions / Colonic Score: Day 7; for Average Adhesions / Average Colon Wall Thickness, score: score 0-2; for Average Strictures / Average Ulcers, score: score 0-3; for # Ulcers / Colon Length / Colon Weight / Ratio (colon length/colon weight) / Ulcer Length / Wall Thickness / Colon Wall Thickness, score / Ulcers, score / Strictures / Adhesions / Colonic Score / Rat Weight: individual rats; for Colon Wall Thickness, score: less than 1 mm=0, 1-3 mm=1, >3 mm=2; for Ulcers, score: none=0, linear ulceration <1 cm=1, two linear ulcers <1 cm=2, more sites or one large ulcer=3; for Strictures: score none=0, mild=1, moderate=2, severe, proximal dilatation=3; for Adhesions: score none=0, minimal=1, involving several bowel loops=2; for Colonic Score: sum of adhesions, strictures, ulcers and wall thickness scores
# Procedure: In Vivo Efficacy of PDE4 Inhibitor Prodrug in the Trinitrobenzenesulfonic Acid (TNBS) Rat Model of Colonic Inflammation
# 2. 1.62 g of prodrug from Example 2 (WB301), lot 2 (MW 587.12) in a clear 20 mL glass vial (orange material) which was stored at 4-8° C.
# 38 Sprague-Dawley rats (Harlan Sprague-Dawley, Inc. male, PO #599229, R #3450, 200-220 g) were received, individually examined and housed in nine cages of four rats each and one cage containing two rats. No clinical signs of disease or distress were observed. The rats were placed in quarantine with daily inspections. The rats were ear notched (SOP 800) for identification purposes, weighed (RESULTS), and sorted into four treatment groups of eight rats each based upon average body weight. The rats were individually examined and found to be free of any clinical signs of disease or distress. No deaths were recorded during the quarantine period. The rats were released to routine maintenance.
# A 16 mg/ml TNBS solution was prepared be adding 2.729 ml picrylsulfonic acid solution (1 M, FLU KA, Cat. 92822, lot CDBB6609V) to 22.271 ml de-ionized water (dH20) and 25 ml 100% ethanol (200 proof, Sigma, Cat. E7023, lot SHBH3633V).
# The rats were weighed (RESULTS), anesthetized (SOP1810) and Groups 1-4 were intra-rectally instilled with 4 ml/kg TNBS solution (64 mg/kg), the anus was pinched closed and the rat held inverted for one minute.
# 400 mg (-)riboflavin was dissolved in 40 ml DMSO (Sigma, Cat. D5879, lot 16K0127) by sonication in a 40° C. water bath for 20 minutes in an amber glass bottle, followed by storage at room temperature overnight to prepare a 10 mg/ml yellow solution.
# 135 mg NaOH (Fisher Scientific, Cat. S320, lot 066620) was dissolved in 100 ml dH2O to prepare a 1.35 mg/ml solution. 128.46 mg prednisolone 21-hemisuccinate sodium salt (Sigma, Cat. P4153, lot BCBB6136V, salt factor 1.339) was dissolved in 9.59 ml (-)riboflavin/DMSO followed by addition of 9.59 ml PEG400 (Sigma, Cat. 91893, lot BCBB7720). 28.781 aqueous NaOH was added with sonication to prepare a 2 mg/ml solution for Group 4. 44 mg WB301 was vortexed in 2.19 ml (-)riboflavin/DMSO to yield an orange solution followed by addition of 2.19 ml PEG400. 6.621 ml aqueous NaOH was added with sonication to prepare a 4 mg/ml solution for Group 1. 132 mg WB301 was vortexed in 2.19 ml (-)riboflavin/DMSO to yield an orange solution followed by addition of 2.19 ml PEG400. 6.621 ml aqueous NaOH was added with sonication to prepare a 12 mg/ml solution for Group 2. 6.6 mg apremilast was vortexed in 2.2 ml (-)riboflavin/DMSO to yield an orange solution followed by addition of 6.6 ml PEG400. 2.2 ml dH2O was added to prepare a 0.6 mg/ml solution for Group 3.
# The rats were weighed (RESULTS) and daily oral (PO, SOP 1651) dosing at 5 ml/kg was initiated as in TABLE 1.
# The rats were weighed (RESULTS) and the animals were dosed as described above daily. WB301 and apremilast solutions were prepared fresh daily as described above.
# The rats were weighed (RESULTS) anesthetized, a midline incision was made in the abdomen and the colon was evaluated for adhesions and stricture (RESULTS). The colon was removed and the length recorded (RESULTS). A midline incision was made the entire length of the colon, the contents removed and the colon weight and colon wall thickness recorded (RESULTS). A section of the colon was preserved in 20 volumes of 10% neutral buffered formalin (Richard-Allan Scientific, Cat. 5701, lot 378532, exp07/2020). The carcasses were disposed of.
# 3) involving several bowel loops=2
# 4) severe, proximal dilatation=3
# 2) linear ulceration <1 cm=1
# 3) two linear ulcers <1 cm=2
# 4) more sites of ulceration or one large ulcer=3
# [1] = Group 1, 20 mg/kg once daily oral, starting 24 hours after TNBS
# [2] = Group 2, 60 mg/kg once daily oral
# [3] = Group 2, 60 mg/kg PO daily, study day 0, day of TNBS, before dosing
# [4] = Group 2, 60 mg/kg PO daily, study day 1, before first dose
# [5] = Group 2, 60 mg/kg PO daily, study day 2
# [6] = Group 2, 60 mg/kg PO daily, study day 3
# [7] = Group 2, 60 mg/kg PO daily, study day 4
# [8] = Group 2, 60 mg/kg PO daily, study day 5
# [9] = Group 2, 60 mg/kg PO daily, study day 6
# [10] = Group 2, 60 mg/kg PO daily, study day 7
# [11] = Group 2, 60 mg/kg PO daily, study day −3, before TNBS and dosing
structure (smiles),measurement,setting,value
CCOc1cc([C@@H](CS(C)(=O)=O)N2C(=O)c3cccc(/N=N/c4ccc(O)c(C(=O)O)c4)c3C2=O)ccc1OC [WB301],effect on TNBS-induced damage across doses,"20 and 60 mg/kg once daily oral, starting 24 hours after TNBS",dose-dependent reduction in the TNBS-induced damage
same,amelioratory effect on TNBS-induced damage,[1],no apparent amelioratory effect was observed
same,weight loss,[1],15%
same,macroscopic disease scores,[2],improvement of the macroscopic disease scores
same,study day on which rats began to recover from TNBS-induced weight loss,[2],6 days
same,reduction in overall colonic score,"Group 2, 60 mg/kg once daily oral, assuming a colonic score of 10 for vehicle-treated rats",25%
same,stool observation in cages/bedding,"Group 2, 60 mg/kg once daily oral, starting DAY 4, indicative of partial colon function",Diarrhea was observed in the bedding
same,Average # Ulcers,"Group 1, 20 mg/kg PO daily",1
same,Average Colon Length,"Group 1, 20 mg/kg PO daily",11.4 cm
same,Average Colon Weight,"Group 1, 20 mg/kg PO daily",6.652 g
same,Average Colonic Score,"Group 1, 20 mg/kg PO daily",9.1
same,Average Ratio (colon length/colon weight),"Group 1, 20 mg/kg PO daily",1.915 cm/g
same,Average Ulcer Length,"Group 1, 20 mg/kg PO daily",6.3 cm
same,Average Wall Thickness,"Group 1, 20 mg/kg PO daily",3.4 mm
same,Average Adhesions,"Group 1, 20 mg/kg PO daily",1.5
same,"Average Colon Wall Thickness, score","Group 1, 20 mg/kg PO daily",1.8
same,Average Strictures,"Group 1, 20 mg/kg PO daily",2.9
same,"Average Ulcers, score","Group 1, 20 mg/kg PO daily",3.0
same,Average Rat Weight,"Group 1, 20 mg/kg PO daily, study day 0, day of TNBS, before dosing",219 g
same,Average Rat Weight,"Group 1, 20 mg/kg PO daily, study day 1, before first dose",213 g
same,Average Rat Weight,"Group 1, 20 mg/kg PO daily, study day 2",203 g
same,Average Rat Weight,"Group 1, 20 mg/kg PO daily, study day 3",197 g
same,Average Rat Weight,"Group 1, 20 mg/kg PO daily, study day 4",195 g
same,Average Rat Weight,"Group 1, 20 mg/kg PO daily, study day 5",189 g
same,Average Rat Weight,"Group 1, 20 mg/kg PO daily, study day 6",189 g
same,Average Rat Weight,"Group 1, 20 mg/kg PO daily, study day 7",186 g
same,Average Rat Weight,"Group 1, 20 mg/kg PO daily, study day −3, before TNBS and dosing",215 g
same,Average # Ulcers,"Group 2, 60 mg/kg PO daily",1
same,Average Colon Length,"Group 2, 60 mg/kg PO daily",14.4 cm
same,Average Colon Weight,"Group 2, 60 mg/kg PO daily",4.604 g
same,Average Colonic Score,"Group 2, 60 mg/kg PO daily",7.5
same,Average Ratio (colon length/colon weight),"Group 2, 60 mg/kg PO daily",3.891 cm/g
same,Average Ulcer Length,"Group 2, 60 mg/kg PO daily",5.6 cm
same,Average Wall Thickness,"Group 2, 60 mg/kg PO daily",2.6 mm
same,Average Adhesions,"Group 2, 60 mg/kg PO daily",1.3
same,"Average Colon Wall Thickness, score","Group 2, 60 mg/kg PO daily",1.1
same,Average Strictures,"Group 2, 60 mg/kg PO daily",2.1
same,"Average Ulcers, score","Group 2, 60 mg/kg PO daily",3.0
same,Average Rat Weight,[3],216 g
same,Average Rat Weight,[4],207 g
same,Average Rat Weight,[5],200 g
same,Average Rat Weight,[6],193 g
same,Average Rat Weight,[7],192 g
same,Average Rat Weight,[8],191 g
same,Average Rat Weight,[9],195 g
same,Average Rat Weight,[10],196 g
same,Average Rat Weight,[11],215 g
same,# Ulcers,"Group 1, 20 mg/kg PO daily",1
same,Colon Length,"Group 1, 20 mg/kg PO daily",12.0 cm and 10.0 cm and 10.5 cm and 11.0 cm (3×) and 12.5 cm and 13.5 cm
same,Colon Weight,"Group 1, 20 mg/kg PO daily",9.124 g and 7.629 g and 3.180 g and 4.920 g and 9.000 g and 8.300 g and 6.200 g and 4.862 g
same,Ratio (colon length/colon weight),"Group 1, 20 mg/kg PO daily",1.315 cm/g and 1.311 cm/g and 3.302 cm/g and 2.236 cm/g and 1.389 cm/g and 1.325 cm/g and 2.177 cm/g and 2.262 cm/g
same,Ulcer Length,"Group 1, 20 mg/kg PO daily",6.0 cm (3×) and 6.3 cm and 7.0 cm and 5.5 cm and 6.8 cm and 6.5 cm
same,Wall Thickness,"Group 1, 20 mg/kg PO daily",3.5 mm and 3.2 mm and 4.0 mm (2×) and 3.7 mm (2×) and 2.5 mm (2×)
same,"Colon Wall Thickness, score","Group 1, 20 mg/kg PO daily",2 (6×) and 1 (2×)
same,"Ulcers, score","Group 1, 20 mg/kg PO daily",3
same,Strictures,"Group 1, 20 mg/kg PO daily",3 (7×) and 2
same,Adhesions,"Group 1, 20 mg/kg PO daily",1 (4×) and 2 (4×)
same,Colonic Score,"Group 1, 20 mg/kg PO daily",9 (2×) and 10 (4×) and 8 and 7
same,# Ulcers,"Group 2, 60 mg/kg PO daily",1
same,Colon Length,"Group 2, 60 mg/kg PO daily",15.0 cm (5×) and 14.5 cm and 14.0 cm and 11.5 cm
same,Colon Weight,"Group 2, 60 mg/kg PO daily",2.551 g and 1.969 g and 6.164 g and 5.418 g and 9.037 g and 4.831 g and 4.140 g and 2.719 g
same,Ratio (colon length/colon weight),"Group 2, 60 mg/kg PO daily",5.880 cm/g and 7.618 cm/g and 2.352 cm/g and 2.769 cm/g and 1.549 cm/g and 3.105 cm/g and 3.623 cm/g and 4.229 cm/g
same,Ulcer Length,"Group 2, 60 mg/kg PO daily",3.5 cm and 4.0 cm and 6.0 cm (2×) and 6.5 cm (2×) and 6.7 cm and 5.5 cm
same,Wall Thickness,"Group 2, 60 mg/kg PO daily",2.0 mm (4×) and 3.0 mm (2×) and 4.0 mm and 2.5 mm
same,"Colon Wall Thickness, score","Group 2, 60 mg/kg PO daily",1 (7×) and 2
same,"Ulcers, score","Group 2, 60 mg/kg PO daily",3
same,Strictures,"Group 2, 60 mg/kg PO daily",1 (2×) and 0 and 3 (5×)
same,Adhesions,"Group 2, 60 mg/kg PO daily",0 (2×) and 2 (4×) and 1 (2×)
same,Colonic Score,"Group 2, 60 mg/kg PO daily",5 and 4 and 9 (3×) and 8 and 10 and 6
same,Rat Weight,[3],217 g and 215 g and 214 g and 222 g and 208 g and 211 g and 220 g (2×)
same,Rat Weight,[4],206 g and 202 g and 213 g (2×) and 207 g and 203 g (2×) and 212 g
same,Rat Weight,[5],205 g and 199 g and 204 g and 200 g (2×) and 195 g and 206 g and 193 g
same,Rat Weight,[6],199 g and 200 g (2×) and 197 g and 196 g and 184 g (2×) and 183 g
same,Rat Weight,[7],192 g and 212 g and 200 g (2×) and 193 g and 179 g and 183 g and 176 g
same,Rat Weight,[8],196 g and 226 g and 191 g and 192 g and 182 g and 174 g and 199 g and 171 g
same,Rat Weight,[9],207 g and 233 g and 193 g and 197 g and 184 g and 172 g and 199 g and 171 g
same,Rat Weight,[10],220 g and 244 g and 187 g and 189 g and 178 g and 169 g and 196 g and 181 g
same,Rat Weight,[11],214 g and 212 g and 215 g and 219 g and 208 g and 210 g and 220 g (2×)
